ChEMBL document CHEMBL5370531, “Design, synthesis and pharmacological evaluation of 2,3-dihydrobenzofuran IRAK4 inhibitors for the treatment of diffuse large B-cell lymphoma” (Eur J Med Chem, 2023)
pIC50: −log10 of the molar value.

How the values were obtained:
[1] = target: T1, Interleukin-1 receptor-associated kinase 4 (Homo sapiens, UniProt Q9NWZ3); test: Inhibition of IRAK4 (unknown origin) by Z-LYTE enzymatic kinase assay
T1 sequence (Q9NWZ3 whole entry): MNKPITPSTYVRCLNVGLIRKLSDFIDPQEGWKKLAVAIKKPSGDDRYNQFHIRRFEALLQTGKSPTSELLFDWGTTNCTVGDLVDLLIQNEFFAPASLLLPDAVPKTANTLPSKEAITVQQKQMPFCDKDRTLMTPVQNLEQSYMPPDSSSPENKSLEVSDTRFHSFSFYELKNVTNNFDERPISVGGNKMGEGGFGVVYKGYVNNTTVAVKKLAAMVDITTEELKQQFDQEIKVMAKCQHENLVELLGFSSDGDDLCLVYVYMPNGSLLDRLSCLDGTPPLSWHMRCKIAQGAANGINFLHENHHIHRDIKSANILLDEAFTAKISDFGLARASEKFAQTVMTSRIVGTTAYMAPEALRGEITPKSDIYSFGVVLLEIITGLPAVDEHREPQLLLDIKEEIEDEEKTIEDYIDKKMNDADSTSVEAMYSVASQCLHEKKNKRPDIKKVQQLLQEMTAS

U2932 = test: Cytotoxicity against human U2932 cells assessed as inhibition of cell proliferation incubated for 72 hrs by CCK-8 assay; type: functional, cell-based; details: U2932, 72 h
[2] = Cytotoxicity against human GM00637 cells assessed as inhibition of cell proliferation incubated for 72 hrs by CCK-8 assay; type: toxicity, cell-based
OCI-Ly10 = test: Cytotoxicity against human OCILY10 cells assessed as inhibition of cell proliferation incubated for 72 hrs by CCK-8 assay; type: functional, cell-based; details: OCI-Ly10, 72 h

SMILES	pIC50 [1]	pIC50 (U2932)	IC50 at 72 h [2] [nM]	pIC50 (OCI-Ly10)
Cc1noc(C)c1-c1cc2c(cc1NC(=O)c1coc(-c3ccnc(N)c3)n1)CC(C)(C)O2	< 7.00			
CC1(C)Cc2cc(NC(=O)c3coc(-c4ccnc(N)c4)n3)c(N3CCN(CCO)CC3)cc2O1	8.13			
CC1(C)Cc2cc(NC(=O)c3coc(-c4ccnc(N)c4)n3)c(-c3cncnc3)cc2O1	7.90	5.68	4630	6.17
CC1(C)Cc2cc(NC(=O)c3cnn4cccnc34)c(N3CCC(CO)CC3)cc2O1	8.54			4.91
COc1cc(-c2cc3c(cc2NC(=O)c2coc(-c4ccnc(N)c4)n2)CC(C)(C)O3)ccn1	7.64			
CC1(C)Cc2cc(NC(=O)c3cccc(N4CCC[C@@H](N)C4)n3)c(N3CCC(CO)CC3)cc2O1	< 7.00			
CC1(C)Cc2cc(NC(=O)c3coc(-c4ccncc4)n3)c(N3CCC(CO)CC3)cc2O1	7.66			
CC1(C)Cc2cc(NC(=O)c3coc(-c4ccnc(N)c4)n3)c(N3CCC(CO)CC3)cc2O1	8.68			6.47
CC1(C)Cc2cc(NC(=O)c3cccc(-c4ccc(N)nc4)n3)c(N3CCC(CO)CC3)cc2O1	< 7.00			
CC1(C)Cc2cc(NC(=O)c3cccc(-c4ccnc(N)c4)n3)c(N3CCC(CO)CC3)cc2O1	< 7.00			
CC1(C)Cc2cc(NC(=O)c3coc(-c4ccnc(N)c4)n3)c(N3CCC(C(C)(C)O)CC3)cc2O1	7.22			
CC1(C)Cc2cc(NC(=O)c3coc(-c4ccnc(N)c4)n3)c(N3CCOCC3)cc2O1	8.59	6.74	312	6.96
CC1(C)Cc2cc(NC(=O)c3coc(N4CC[C@@H](N)C4)n3)c(N3CCC(CO)CC3)cc2O1	7.18			
Cc1ncc(-c2cc3c(cc2NC(=O)c2coc(-c4ccnc(N)c4)n2)CC(C)(C)O3)cn1	7.85	5.29	> 50000	6.08
CC1(C)Cc2cc(NC(=O)c3coc(-c4ccnc(N)c4)n3)c(-c3ccc(C#N)nc3)cc2O1	7.38			
CC(C)n1cc(-c2cc3c(cc2NC(=O)c2coc(-c4ccnc(N)c4)n2)CC(C)(C)O3)cn1	7.61			
CC1(C)Cc2cc(NC(=O)c3coc(-c4ccnc(N)c4)n3)c(-c3ccnc(C(F)(F)F)c3)cc2O1	< 7.00			
CC1(C)Cc2cc(NC(=O)c3coc(-c4ccnc(N)c4)n3)c(-c3ccoc3)cc2O1	7.99	5.61	> 50000	6.40

SMILES	pIC50 [1]	pIC50 (U2932)	IC50 at 72 h [2] [nM]	pIC50 (OCI-Ly10)
Cn1cc(-c2cccc(C(=O)Nc3cc4c(cc3N3CCC(CO)CC3)OC(C)(C)C4)n2)cn1	7.13			
CC1(C)Cc2cc(NC(=O)c3coc(-c4ccnc(N)c4)n3)c(N3CCN(CC(N)=O)CC3)cc2O1	7.94			
Cc1cc(-c2cc3c(cc2NC(=O)c2coc(-c4ccnc(N)c4)n2)CC(C)(C)O3)cc(C)n1	< 7.00			
CCn1cc(-c2cc3c(cc2NC(=O)c2coc(-c4ccnc(N)c4)n2)CC(C)(C)O3)cn1	7.73			
CC1(C)Cc2cc(NC(=O)c3coc(N4CCC[C@@H](N)C4)n3)c(N3CCC(CO)CC3)cc2O1	< 7.00			
CC1(C)Cc2cc(NC(=O)c3coc(-c4ccnc(N)c4)n3)c(-c3ccc(C(F)(F)F)nc3)cc2O1	7.60			
Cc1ccc(-c2cc3c(cc2NC(=O)c2coc(-c4ccnc(N)c4)n2)CC(C)(C)O3)cn1	7.89	< 4.30	> 50000	5.50
CC1(C)Cc2cc(NC(=O)c3coc(-c4ccnc(N)c4)n3)c(N3CCC(C(N)=O)CC3)cc2O1	7.55			
CC1(C)Cc2cc(NC(=O)c3coc(-c4ccnc(N)c4)n3)c(N3CCC(O)CC3)cc2O1	7.49			
CC1(C)Cc2cc(NC(=O)c3coc(-c4ccnc(N)c4)n3)c(N3CCC(CN)CC3)cc2O1	7.85			
Cc1cc(-c2cc3c(cc2NC(=O)c2coc(-c4ccnc(N)c4)n2)CC(C)(C)O3)ccn1	7.52			
CC(=O)Nc1cc(-c2nc(C(=O)Nc3cc4c(cc3N3CCC(CO)CC3)OC(C)(C)C4)co2)ccn1	7.20			
CC1(C)Cc2cc(NC(=O)c3coc(-c4ccnc(N)c4)n3)c(-c3ccnc(C#N)c3)cc2O1	< 7.00			
CC1(C)Cc2cc(NC(=O)c3cccc(N4CC[C@@H](N)C4)n3)c(N3CCC(CO)CC3)cc2O1	< 7.00			
COc1ccc(-c2cc3c(cc2NC(=O)c2coc(-c4ccnc(N)c4)n2)CC(C)(C)O3)cn1	7.57			
CC1(C)Cc2cc(NC(=O)c3cnn4cccnc34)c(N3CCOCC3)cc2O1	8.21			
Cc1cc(-c2nc(C(=O)Nc3cc4c(cc3N3CCC(CO)CC3)OC(C)(C)C4)co2)ccn1	< 7.00			
